Reference: PubChem BioAssay (NCI)
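Tested at 5 concentrations; 48 h exposure; 96-well plates; endpoints linearly interpolated, else capped at highest concentration. TGI marks complete inhibition of growth.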

Tests used:
Assay in all cases: NCI anticancer screen, dose series, 48 h
[1] = test system: HCT-15 colon
[2] = test system: M14 melanoma
[3] = test system: SK-MEL-5 melanoma
[4] = test system: SF-295 CNS
[5] = test system: COLO 205 colon
[6] = test system: SK-MEL-28 melanoma
[7] = test system: SF-268 CNS
[8] = test system: EKVX NSCLC
[9] = test system: CCRF-CEM leukemia
[10] = test system: HCC-2998 colon
[11] = test system: HOP-92 NSCLC
[12] = test system: SNB-75 CNS
[13] = test system: SK-MEL-2 melanoma
[14] = test system: MDA-MB-435
[15] = test system: DU-145 prostate

With C=C1C(=O)OC2/C=C(\C)C(O)/C=C\C(C)(O)CC(OC(=O)/C(C)=C/C)C12 (stereo not drawn) the TGI [1] was 33.8 µM, the TGI [2] was 32.7 µM and the TGI [3] was over 100 µM. The TGI [4] was over 100 µM, the TGI [5] was 28.9 µM and the TGI [6] was 35.4 µM. For the same compound, the TGI [7] was over 100 µM, the TGI [8] was 77.9 µM and the TGI [9] was over 61.7 µM. The TGI [10] was over 100 µM, the TGI [11] was 77.5 µM and the TGI [12] was over 100 µM. It also gave a TGI [13] of 48.8 µM.
CSc1c(C#N)c2n(c3ccccc3[n+]2C)c2ncccc12 gave a TGI [1] of over 100 µM, a TGI [2] of 52.6 µM and a TGI [3] of 30.5 µM. The TGI [4] was over 100 µM, the TGI [5] was 54.2 µM and the TGI [6] was 49.1 µM. The TGI [7] was 86.9 µM, the TGI [8] was 50.5 µM and the TGI [9] was over 100 µM. The TGI [10] was over 100 µM, the TGI [14] was over 100 µM and the TGI [15] was 47.2 µM. For the same compound, the TGI [12] was 50.4 µM and the TGI [13] was 39.7 µM.
Cc1n[nH]c(=O)n1N=C(c1ccccc1)c1ccccc1 showed a TGI [1] of over 100 µM, a TGI [2] of over 100 µM and a TGI [3] of over 100 µM. For the same compound, the TGI [4] was over 100 µM, the TGI [5] was over 100 µM and the TGI [6] was over 100 µM. It also gave a TGI [7] of over 100 µM, a TGI [8] of over 100 µM and a TGI [9] of over 100 µM. For the same compound, the TGI [11] was over 100 µM, the TGI [14] was over 100 µM and the TGI [15] was over 100 µM. It also gave a TGI [13] of over 100 µM.
Compound COc1cc2c(cc1OC)C(Cl)C(c1cc(OC)c(OC)c(OC)c1)=C2Cl (stereo not drawn) has a TGI [1] of 49.4 µM, a TGI [2] of 35.2 µM and a TGI [3] of 30.5 µM. It also gave a TGI [4] of 29.9 µM, a TGI [5] of 32.9 µM and a TGI [6] of 31.9 µM. For the same compound, the TGI [7] was 55.7 µM, the TGI [8] was 79.4 µM and the TGI [9] was 40.7 µM. For the same compound, the TGI [11] was 27.9 µM, the TGI [12] was 18.1 µM and the TGI [13] was 34.1 µM.
CC1(C)CCc2c(c(N=Nc3ccccc3)c3ccccc3c2O)O1 was tested, and the TGI [1] was over 100 µM, the TGI [2] was 88.8 µM and the TGI [3] was over 100 µM. It also gave a TGI [4] of 57.3 µM, a TGI [5] of over 100 µM and a TGI [6] of over 100 µM. The TGI [7] was over 100 µM, the TGI [8] was 59.5 µM and the TGI [9] was over 100 µM. The TGI [11] was 63.9 µM, the TGI [14] was 83.5 µM and the TGI [15] was 83 µM. For the same compound, the TGI [13] was 34.5 µM.
CCN(CC)CCNc1ccc(C)c2sc3ccc(O)cc3c(=O)c12 gave a TGI [1] of 2.72 µM, a TGI [2] of 2.48 µM and a TGI [3] of 2.3 µM. For the same compound, the TGI [4] was 1.98 µM, the TGI [5] was 3.27 µM and the TGI [6] was 2.96 µM. It also gave a TGI [7] of 7.93 µM, a TGI [8] of 25.9 µM and a TGI [9] of 1.06 µM. The TGI [10] was 2.66 µM, the TGI [11] was 7.17 µM and the TGI [12] was 4.3 µM. It also gave a TGI [13] of 3.24 µM.
CC1(C)CC(=O)c2c(nc3ccc4ccccc4c3c2-c2ccc(NC(=O)CCCCC(=O)Nc3ccc(-c4c5c(nc6ccc7ccccc7c46)CC(C)(C)CC5=O)cc3)cc2)C1 was tested, and the TGI [1] was over 100 µM, the TGI [2] was over 100 µM and the TGI [3] was over 100 µM. It also gave a TGI [4] of over 100 µM, a TGI [5] of over 100 µM and a TGI [6] of over 100 µM. For the same compound, the TGI [7] was over 100 µM, the TGI [8] was over 100 µM and the TGI [9] was over 100 µM. For the same compound, the TGI [11] was over 100 µM, the TGI [14] was over 100 µM and the TGI [15] was over 100 µM. For the same compound, the TGI [12] was over 100 µM and the TGI [13] was over 100 µM.
For COc1cc(CC2c3cc(OC)c(OC)cc3CCN2C)c(Oc2cc3c(cc2OC)-c2c(OC)c(OC)c(OC)c4c2C(C3)N(C)CC4)cc1OC (stereo not drawn), the TGI [1] was 23.4 µM, the TGI [2] was 5.76 µM and the TGI [3] was 13.4 µM. For the same compound, the TGI [4] was 28.8 µM, the TGI [5] was 20.9 µM and the TGI [6] was 22.8 µM. It also gave a TGI [7] of 32.8 µM, a TGI [8] of 31.1 µM and a TGI [9] of over 50.9 µM. The TGI [10] was 13.7 µM, the TGI [11] was 20.9 µM and the TGI [12] was 25 µM. It also gave a TGI [13] of 28.8 µM.
Compound c1ccc(-c2cc(-c3cc(-c4ccccc4)n(-c4ccccc4)n3)nn2-c2ccccc2)cc1 has a TGI [1] of over 100 µM, a TGI [2] of over 100 µM and a TGI [3] of over 100 µM. It also gave a TGI [4] of over 100 µM, a TGI [5] of over 100 µM and a TGI [7] of over 100 µM. The TGI [8] was over 100 µM, the TGI [9] was over 100 µM and the TGI [10] was over 100 µM. The TGI [14] was over 100 µM, the TGI [15] was over 100 µM and the TGI [12] was over 100 µM. It also gave a TGI [13] of over 100 µM.
Cc1nc(-c2nc([N+](=O)[O-])c([N+](=O)[O-])[nH]2)cs1 gave a TGI [2] of over 100 µM, a TGI [3] of over 100 µM and a TGI [4] of over 100 µM. For the same compound, the TGI [5] was over 100 µM, the TGI [6] was over 100 µM and the TGI [7] was over 100 µM. It also gave a TGI [8] of over 100 µM, a TGI [9] of over 100 µM and a TGI [10] of over 100 µM. It also gave a TGI [11] of over 100 µM, a TGI [12] of over 100 µM and a TGI [13] of over 100 µM.
Compound CSCCCCCCCCCCOc1ccc(C=C2C(=C(C#N)C#N)c3ccccc3C2=C(C#N)C#N)cc1 has a TGI [1] of 46.8 µM, a TGI [2] of 32.1 µM and a TGI [3] of 31.9 µM. It also gave a TGI [4] of 34 µM, a TGI [6] of 29.6 µM and a TGI [7] of 34.2 µM. For the same compound, the TGI [8] was 34.5 µM, the TGI [9] was 12.2 µM and the TGI [11] was 26.9 µM. The TGI [14] was 32.9 µM, the TGI [15] was 28.9 µM and the TGI [13] was 36.7 µM.
COc1ccc(NC2=NCCO2)c2ccccc12 showed a TGI [1] of over 10 µM, a TGI [2] of over 10 µM and a TGI [3] of over 10 µM. The TGI [4] was over 10 µM, the TGI [5] was over 10 µM and the TGI [6] was over 10 µM. It also gave a TGI [7] of over 10 µM, a TGI [8] of over 10 µM and a TGI [9] of over 10 µM. It also gave a TGI [10] of over 10 µM, a TGI [14] of over 10 µM and a TGI [15] of over 10 µM. It also gave a TGI [12] of over 10 µM and a TGI [13] of over 10 µM.
Cc1ccc(/C=N/Nc2ncccn2)s1 was tested, and the TGI [1] was over 100 µM, the TGI [2] was over 100 µM and the TGI [3] was over 100 µM. For the same compound, the TGI [4] was over 100 µM, the TGI [5] was over 100 µM and the TGI [6] was over 100 µM. It also gave a TGI [7] of over 100 µM, a TGI [8] of over 100 µM and a TGI [9] of over 100 µM. It also gave a TGI [10] of over 100 µM, a TGI [11] of over 100 µM and a TGI [14] of over 100 µM. It also gave a TGI [12] of over 100 µM and a TGI [13] of over 100 µM.
COc1nc(=O)n(C2CC(N=[N+]=[N-])C(CO)O2)cc1C (stereo not drawn) was tested, and the TGI [1] was over 100 µM, the TGI [2] was over 100 µM and the TGI [3] was over 100 µM. The TGI [4] was over 100 µM, the TGI [6] was over 100 µM and the TGI [7] was over 100 µM. It also gave a TGI [8] of over 100 µM, a TGI [9] of over 100 µM and a TGI [11] of over 100 µM. The TGI [14] was over 100 µM, the TGI [15] was over 100 µM and the TGI [13] was over 100 µM.
With C#CCOC(=O)c1ccccc1OC(C)=O the TGI [1] was over 100 µM, the TGI [2] was over 100 µM and the TGI [3] was over 100 µM. The TGI [4] was over 100 µM, the TGI [5] was over 100 µM and the TGI [7] was over 100 µM. For the same compound, the TGI [8] was over 100 µM, the TGI [9] was over 100 µM and the TGI [11] was over 100 µM. It also gave a TGI [14] of over 100 µM, a TGI [15] of over 100 µM and a TGI [12] of over 100 µM. It also gave a TGI [13] of over 100 µM.
Compound Nc1ccn(C2OC(COP(=O)(O)Oc3ccccc3)C(O)C2O)c(=O)n1 (stereo not drawn) has a TGI [1] of over 100 µM, a TGI [3] of over 100 µM and a TGI [4] of over 100 µM. For the same compound, the TGI [5] was over 100 µM, the TGI [6] was over 100 µM and the TGI [7] was over 100 µM. It also gave a TGI [8] of over 100 µM, a TGI [9] of over 100 µM and a TGI [10] of over 100 µM. For the same compound, the TGI [11] was over 100 µM, the TGI [12] was over 100 µM and the TGI [13] was over 100 µM.
N#Cc1c(-c2ccc(Cl)cc2)c(C#N)c(=O)n(NS(=O)(=O)c2ccccc2)c1-c1ccccc1 gave a TGI [1] of over 25 µM, a TGI [2] of over 25 µM and a TGI [3] of over 25 µM. For the same compound, the TGI [4] was over 25 µM, the TGI [5] was over 25 µM and the TGI [6] was over 25 µM. For the same compound, the TGI [9] was over 25 µM, the TGI [10] was over 25 µM and the TGI [11] was over 25 µM. For the same compound, the TGI [14] was over 25 µM and the TGI [13] was over 25 µM.
